Blank lines part the entries; values can stand above or below the molecule they belong to.
Columns and labels:
in vivo = conditions: BALB/c nude, mouse, po
Experimental: Blood and whole brain of the mice were harvested 6 hours after the last treatment. Plasma was isolated from blood by centrifugation at 3000 rpm for 10 min at 4° C. Half of each brain was flash frozen using liquid nitrogen. All plasma and brain samples were stored at −80° C. until analysis by HPLC-MS/MS.
The separation was performed by injecting 10 μL of the sample on Acquity HPLC BEH C18 column (50×2.1 mm I.D., 1.7 μm, Waters, Milford, Mass., USA). […] The flow rate was 0.45 mL/min using a column temperature of 45° C.
The blood and whole brain of the mice were harvested six hours after the last treatment and the drug concentrations were measured by HPLC-MS/MS.

231-BR-HER2 cells = assay: Brain metastasis xenograft, 231-BR-HER2 model: metastases counted in H&E-stained brain sections; conditions: for fewer large metastases than vehicle / fewer micrometastases than vehicle: 231-BR-HER2 cells, p<0.05; for Micro metastases # / large metastases #: 231-BR-HER2 model; for Micro metastases #: ≦50 μm^2; for large metastases #: >50 μm^2
231-BR-vector cells = assay: Brain metastasis xenograft, 231-BR-vector model: metastases counted in H&E-stained brain sections; conditions: for large metastases # / Micro metastases #: 231-BR-vector model; for large metastases #: >50 μm^2; for Micro metastases #: ≦50 μm^2
Text: Treatment started 3 days after cell injection.
Brain sections (10 μm thick) were serially sectioned.
Mice received 28 days treatment, and all mice were sacrificed, and brains were harvested for ex vivo whole-brain fluorescent imaging of EGFP-positive brain metastases.

[1] = reported (Porkka et al., 2008); cited from earlier work
[2] = 40 mg/kg once daily oral 28 days
[3] = 80 mg/kg once daily oral 28 days
[4] = 25 mg/kg once daily oral 28 days
[5] = 50 mg/kg once daily oral 28 days

- Kp at 336 h (in vivo): 0.24 to 0.31
SMILES: CCN(CC)CCNC(=O)c1c(C)[nH]c(/C=C2\C(=O)Nc3ccc(F)cc32)c1C [Sunitinib]
- fewer large metastases than vehicle (231-BR-HER2 cells; 40 or 80 mg/kg body weight): 22.7-24.8%
- fewer micrometastases than vehicle (231-BR-HER2 cells; 40 or 80 mg/kg body weight): 22.3-31.9%
- Micro metastases # (231-BR-HER2 cells; [2]): 228.1 ± 28.3
- Micro metastases # (231-BR-HER2 cells; [3]): 199.8 ± 24.1
- fewer large metastasis than vehicle (231-BR-vector cells; 231-BR-vector cells, 80 mg/kg body weight, p<0.05): 31%
- fewer micrometastases than vehicle (231-BR-vector cells; 231-BR-vector cells, 40 or 80 mg/kg body weight, p<0.05): 28.5-31.3%
- large metastases # (231-BR-vector cells; [2]): 11.8 ± 2.0
- large metastases # (231-BR-vector cells; [3]): 10.2 ± 1.3
- Micro metastases # (231-BR-vector cells; [3]): 150.2 ± 22

- Kp at 336 h (in vivo): 0.06 to 0.12
SMILES: Cc1nc(Nc2ncc(C(=O)Nc3c(C)cccc3Cl)s2)cc(N2CCN(CCO)CC2)n1 [Dasatinib]
- BBB crossing [1]: able to cross the BBB
- fewer large metastases than vehicle (231-BR-HER2 cells; 25 or 50 mg/kg body weight): 38.1-56.9%
- fewer micrometastases than vehicle (231-BR-HER2 cells; 25 or 50 mg/kg body weight): 40.2-61.4%
- large metastases # (231-BR-HER2 cells; [4]): 12.5 ± 1.8
- Micro metastases # (231-BR-HER2 cells; [4]): 175.7 ± 27.8
- large metastases # (231-BR-HER2 cells; [5]): 8.7 ± 1.6
- Micro metastases # (231-BR-HER2 cells; [5]): 113.2 ± 23.8
- fewer micrometastases than vehicle (231-BR-vector cells; 231-BR-vector cells, 25 or 50 mg/kg body weight, p<0.05): 33.8-54.4%
- fewer large metastases than vehicle (231-BR-vector cells; 231-BR-vector cells, 25 or 50 mg/kg, p<0.05): 41.9-49.3%
- large metastases # (231-BR-vector cells; [4]): 8.6 ± 1.5
- Micro metastases # (231-BR-vector cells; [4]): 144.6 ± 12.5
- large metastases # (231-BR-vector cells; [5]): 7.5 ± 1.3
- Micro metastases # (231-BR-vector cells; [5]): 99.5 ± 10.3

— patent US9651554B2, “Molecular diagnostic methods for predicting brain metastasis of breast cancer” (The Methodist Hospital Research Institute, priority 2010, dated 2017)
